Values after ≈ are worked out from the molar mass of the structure shown. Values joined by “and” are separate entries in the source; they are usually repeats but may differ in a detail not shown here. Equal entries are not always repeated.
Legend:
CMV strain AD-169 [1] = experiment: plaque reduction assay, CMV AD-169 in HFF cells; format: cell-based, human CMV; conditions: CMV AD-169, HFF, without 24 h drug pretreatment
Description: (§1) The following procedures were then used to determine inhibitory effects of AV-9 on the replication of CMV. […] This was accomplished by diluting the stock peptide solution in growth medium (10% fetal bovine serum and 10 μg/ml gentamicin in Dulbecco's MEM (DMEM)) used to overlay the monolayers.
(§2) […] Virus was then allowed to adsorb for 1 hour at 37° C. The virus inoculum was removed and the monolayers were overlayed with DMEM containing 2% FBS, 10 ug/ml gentamicin and a specified concentration of AV-9. Virus was next allowed to replicate for 7 to 10 days until the plaques were judged to be well developed, and then the monolayers were fixed and stained with a solution of 1% crystal violet in 1% formaldehyde,70% ethanol. Finally, plaques (each representing a single viable virion) were counted and checked microscopically.
(§3) In a like manner, plaque reduction assays were also performed against other CMV strains and another CMV host, with comparison against ganciclovir (GCV) and foscarnet (FCV).

[2] = test system: Smith strain of murine CMV; experiment: murine CMV infection in cyclophosphamide-immunosuppressed mice; format: in vivo, BALB/c mice; conditions: for Surv/Total / Mean Day to Death ± S.D.: infected mice
From the text: This immunosuppression model mimics the human patient situation, wherein the HCMV-induced disease in immunosuppressed individuals can often be fatal. The particular model used for evaluating potential antiviral activity has been described by Smee et al in J. Infect. Dis., 1991, 164: 958.
The Smith strain of murine CMV, obtained originally from the American Type Culture Collection (Rockville, Md.) was used. A mouse salivary gland preparation was used for the virus pool. An inoculation of 2×10^4 plaque forming units of the virus was used in the antiviral study. Female BALB/c mice weighing 10-12 g were quarantined 24 hr prior to use, and maintained on Wayne Lab Blox and tap water ad libitum the duration of the study.
Ganciclovir (DHPG) was purchased from a commercial source, and cyclophosphamide was purchased from Sigma Chemical Co. (St. Louis, Mo.).
To determine tissue virus titre, homogenates of infected mouse organs were titrated for virus using C127/I cells in 96-well microplates. Each tissue sample was homogenized and titrated separately with 3 micro wells used per dilution; plates were read by microscopic examination for viral-induced cytopathic effect, with 50% end points determined by the Reed-Muench method. Mean viral titers were expressed at 50% cell culture infectious doses (CCID50)/gram of tissue.
For statistical evaluation, increases in mean day to death and reductions in viral titers were assessed using the two-tailed Mann-Whitney U test. Total survivor increases were evaluated by chi square analysis with Yates'.

CMV strain AD-169 [3] = experiment: plaque reduction assay, CMV AD-169 in MRC-5 cells; format: cell-based, human CMV; conditions: CMV AD-169, MRC-5 (human embryonic lung), 24 h drug pretreatment
Description: as §1
(§4) After pretreatment with AV-9, the monolayers were overlaid with 0.1 ml log10 dilutions of virus (CMV strain AD-169) ranging from 10^-1 to 10^-6. Virus was then allowed to adsorb for 1 hour at 37° C. The virus inoculum was removed and the monolayers were overlayed with DMEM containing 2% FBS, 10 ug/ml gentamicin and a specified concentration of AV-9. Virus was next allowed to replicate for 7 to 10 days until the plaques were judged to be well developed, and then the monolayers were fixed and stained with a solution of 1% crystal violet in 1% formaldehyde,70% ethanol. Finally, plaques (each representing a single viable virion) were counted and checked microscopically.
as §3

CMV strain AD-169 [4] = experiment: CPE assay, CMV AD-169 in HFF cells; format: cell-based; conditions: CMV AD-169, HFF (human foreskin fibroblast), without 24 h drug pretreatment
From the text: *CPE assay, all others are plaque reduction assays.

[5] = mouse, in vivo
Description: Ten mice were injected intravenously in the tail vein with 0.25 mL of a solution of 26 μg of ^14 C-labelled compound in 10 mL PBS, and ten mice were given the same dose by subcutaneous injection in the abdomen. One mouse from each group was sacrificed at the time points noted in FIGS. 1 and 2, and the noted organs were weighed and digested to homogeneity for scintillation counting. Counts were measured and used to calculate the amount and concentration of drug in each organ.

physchem = conditions: water
CMV strain Davis = conditions: MRC-5, plaque reduction, 24 h drug pretreatment
Description: The following procedures were then used to determine inhibitory effects of AV-9 on the replication of CMV. First, confluent monolayers of the human diploid cell line, MRC-5 (ATCC# CCL 171) in 24 well cell culture plates were pretreated with specified concentrations (20 μM, 10 μM, 5 μM, 2.5 μM, 1.0 μM, 0.5 μM and 0.0 μM) of AV-9 for 24 hours. This was accomplished by diluting the stock peptide solution in growth medium (10% fetal bovine serum and 10 μg/ml gentamicin in Dulbecco's MEM (DMEM)) used to overlay the monolayers.
as §4, §3

CMV strain Towne = format: cell-based, human CMV; conditions: HFF, plaque reduction, without 24 h drug pretreatment
Description: as §1, §2, §3

[6] = test system: ganciclovir-resistant CMV strains 759^r D100 and GDG^r K17 and foscarnet-resistant CMV strains PFA^r D100 and PFA^r B300; conditions: range over strains 759^r D100, GDG^r K17, PFA^r D100, PFA^r B300; MRC-5; drug pre- and post-infection
Description: This stock solution was subsequently diluted in cell culture medium to obtain the test concentrations used in the study. Ganciclovir (GCV) was dissolved in sterile, deionized water, and the drug concentration measured spectrophotometrically (7.8mM). Foscarnet (phosphonoformic acid, PFA) was dissolved in sterile, deionized water to a final concentration of 100 mM. Aliquots of the stock solutions were stored at -70° C.
Drug-resistant human CMV strains 759^r D100, GDG^r K17, PFA^r D100 and PFA^r B300 were obtained from Dr. Donald M. Coen, Harvard Medical School, Boston, Mass.
The drug stock solutions were diluted with fresh culture medium to obtain the desired test concentrations in the range 0.5-2500 μM.
MRC-5 cells (4-5×10^5 per well) were grown for 24 hours at 37° C. in 5% CO2 atmosphere in D-MEM/F-12FBS medium containing varying concentrations of drug. At the end of the pre-treatment period, the cells were infected with a suspension containing 50 plaque forming units of CMV (MOI=0.0001). The virus was allowed to absorb for 60 minutes at 37° C. in the absence of drug, at which time the virus innoculum was washed away, and the cells fed with fresh growth medium containing drug. […] Vital plaques were counted under a microscope after removing the culture medium from the wells, staining the cells with 1.1% Crystal Violet solution, and washing twice with tap water. […]

[7] = toxicity control mice, immunosuppressed, uninfected; conditions: for Mean Body Weight Change: start of treatment to 24 hr after final treatment; for Surv/Total: toxicity controls
Description: The mice were immunosuppressed by intraperitoneal (i.p.) injection with 100 mg/kg/day of cyclophosphamide administered on days -1, +3, +6, +10, +14 and +18 relative to virus inoculation. […] In a second portion of the study, the compound was administered i.p. in a dose of 0.1 mg/kg/day once daily from day -2 through +10. Ganciclovir in a dose of 50 mg/kg/day was injected i.p. once daily for 10 days beginning 24 hr post-virus exposure (days +1→+10). A total of 15 infected mice/dose were used. […] Five toxicity control mice were used at each dose; these mice were treated in parallel with the infected mice, and were weighed on the initial day of treatment and again 24 after the final treatment. […] Normal controls were weighed and held in parallel with the toxicity controls.

[8] = 0.2 mg/kg/day i.p. every other day, day 9
[9] = 0.2 mg/kg/day i.p. every other day, 9 days after virus challenge
[10] = 0.07 mg/kg/day i.p., days -2,0,+2,+4,+6,+8,+10
[11] = 0.1 mg/kg/day i.p., daily days -2 through +10
[12] = 0.2 mg/kg/day i.p., days -2,0,+2,+4,+6,+8,+10
[13] = 0.7 mg/kg/day i.p., days -2,0,+2,+4,+6,+8,+10
[14] = 2.0 mg/kg/day i.p., days -2,0,+2,+4,+6,+8,+10

SMILES: CC(=O)N[C@H](CCCNC(=N)N)C(=O)N[C@H](CCCNC(=N)N)C(=O)N[C@H](CCCNC(=N)N)C(=O)N[C@H](CCCNC(=N)N)C(=O)N[C@H](CCCNC(=N)N)C(=O)N[C@H](CCCNC(=N)N)C(=O)N[C@H](CCCNC(=N)N)C(=O)N[C@H](CCCNC(=N)N)C(=O)N[C@H](CCCNC(=N)N)C(N)=O [AV-9, acetyl-[D-Arg]9 -NH2]
- IC50 (CMV strain AD-169 [1]): 12 µM
- animals without detectable virus in lungs [2, 8]: one had no detectable virus
- animals without detectable virus in spleen, of the five sampled [2, 8]: three had no detectable virus
- effect on salivary gland virus titers [2, 8]: No effect
- reduction of mean lung virus titer compared to placebo-treated controls [2, 8]: 0.6 log10
- Tissue Virus Titer ± S.D., Lung [2, 9]: 3.3 ± 1.9 log10 CCID50/g
- Tissue Virus Titer ± S.D., Salivary Gland [2, 9]: 7.6 ± 1.2 log10 CCID50/g
- Tissue Virus Titer ± S.D., Spleen [2, 9]: 1.5 ± 2.26 log10 CCID50/g
- Surv/Total [2, 10]: 0/8
- Mean Day to Death ± S.D. ([2]; 0.07 mg/kg/day i.p., days -2,0,+2,+4,+6,+8,+10, P<0.05 vs saline): 13.4 ± 2.6 days
- Mean Day to Death ± S.D. [2, 11]: 11.3 ± 0.5 days
- Surv/Total [2, 11]: 0/8
- Surv/Total [2, 12]: 0/8
- Mean Day to Death ± S.D. ([2]; 0.2 mg/kg/day i.p., days -2,0,+2,+4,+6,+8,+10, P<0.01 vs saline): 18.5 ± 3.7 days
- Mean Day to Death ± S.D. [2, 13]: 11.6 ± 1.6 days
- Surv/Total [2, 13]: 0/7
- Mean Day to Death ± S.D. [2, 14]: 12.1 ± 1.3 days
- Surv/Total [2, 14]: 0/7
- IC50 (CMV strain AD-169 [3]): 2.6 µM and 4.8 µM and 2.7 µM
- IC50 (CMV strain AD-169 [4]): 5.8 µM
- speed of distribution to tissues [5]: rapid distribution of drug to tissues
- tissue distribution, organs with highest levels [5]: highest and most prolonged levels are attained in the liver, followed by the kidneys and spleen
- solubility (physchem): ~1000 mg/mL (≈ 683 mM)
- IC50 (CMV strain Davis): 2.3 µM
- IC50 (CMV strain Towne): 8.7 µM
- IC50 [6]: 1.3 to 2.1 µM
- Mean Body Weight Change ([7]; 0.07 mg/kg/day i.p. every other day): 2.7 g
- Mean Body Weight Change ([7]; 0.1 mg/kg/day i.p. daily days -2 to +10): 3.1 g
- Mean Body Weight Change ([7]; 0.2 mg/kg/day i.p. every other day): 2.2 g
- Mean Body Weight Change ([7]; 0.7 mg/kg/day i.p. every other day): 2.4 g
- Mean Body Weight Change ([7]; 2.0 mg/kg/day i.p. every other day): 1.9 g
- other signs of toxicity (hunching, prostration, ruffled fur, tremors) ([7]; all doses): No other signs of toxicity
- toxicity, overall assessment ([7]; all doses, Table 3): reasonably non-toxic
- Surv/Total [7, 10]: 5/5
- Surv/Total [7, 11]: 5/5
- Surv/Total [7, 12]: 5/5
- Surv/Total [7, 13]: 5/5
- Surv/Total [7, 14]: 5/5
